Assay results published in ChEMBL document CHEMBL1153970, “Characteristic of neuraminidase inhibitory xanthones from Cudrania tricuspidata” (Bioorg Med Chem, 2009).
pIC50, pKi: −log10 of the molar value. Where “and” joins values, the source holds several entries; their conditions need not be identical. Identical values can stand only once.

Columns and labels:
[1] = target: T1, Sialidase (Clostridium perfringens) (UniProt P10481); assay: (§1) Inhibition of Clostridium perfringens neuraminidase by fluorimetry
T1 sequence (whole entry): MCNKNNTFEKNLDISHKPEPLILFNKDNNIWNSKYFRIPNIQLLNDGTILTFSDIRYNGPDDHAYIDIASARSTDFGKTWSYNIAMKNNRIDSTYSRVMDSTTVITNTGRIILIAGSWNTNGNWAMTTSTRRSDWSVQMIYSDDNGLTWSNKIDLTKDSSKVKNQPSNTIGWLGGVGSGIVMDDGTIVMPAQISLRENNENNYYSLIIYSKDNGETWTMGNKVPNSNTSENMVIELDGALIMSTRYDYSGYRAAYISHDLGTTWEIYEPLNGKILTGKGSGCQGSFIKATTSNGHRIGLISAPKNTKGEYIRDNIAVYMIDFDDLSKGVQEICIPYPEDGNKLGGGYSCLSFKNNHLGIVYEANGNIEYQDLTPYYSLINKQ

Sialidase [2] = target: T2, Sialidase (Clostridium perfringens, UniProt P10481); assay: as §1
T2 sequence (P10481 whole entry): T1 sequence (whole entry)

Sialidase [3] = target: T2, Sialidase; assay: Apparent binding affinity at Clostridium perfringens neuraminidase by fluorimetry; conditions: read-out: Ki(app)
Sialidase [4] = target: T2, Sialidase; assay: Competitive inhibition of Clostridium perfringens neuraminidase by Lineweaver-Burke plot and Dixon plot
[5] = target: T1, Sialidase (Clostridium perfringens); assay: Inhibition of Clostridium perfringens neuraminidase at 200 uM by fluorimetry

In the case of `C=CC(C)(C)c1c(O)cc(O)c2c(=O)c3c(CC=C(C)C)c(O)c(O)cc3oc12` [CUDRATRICUSXANTHONE A], the Activity [1] was “Dose-dependent effect”, the pIC50 (Sialidase [2]) was 6.61 and the pKi (Sialidase [3]) was 6.67. It also gave a pKi (Sialidase [4]) of 6.87.

`O=c1cc(-c2ccc(O)cc2)oc2cc(O)cc(O)c12` [APIGENIN] showed a pIC50 (Sialidase [2]) of 4.76.

With `O=c1c2cc(O)c(O)cc2oc2cc(O)c([C@@H]3O[C@H](CO)[C@@H](O)[C@H](O)[C@H]3O)c(O)c12` [MANGIFERIN] the pIC50 (Sialidase [2]) was 4.79.

In the case of `CC(C)=CCc1c(O)c(O)cc2c(=O)c3c(O)c4c(cc3oc12)OC(C)C4(C)C` (centres undefined) [CUDRAXANTHONE M], the Activity [1] was “Dose-dependent effect”, the pIC50 (Sialidase [2]) was 6.73 and the pKi (Sialidase [3]) was 6.29. It also gave a pKi (Sialidase [4]) of 7.01.

`C=CC(C)(C)c1c(O)cc2oc3cc(O)c(O)c(CC=C(C)C)c3c(=O)c2c1O` was tested, and the Activity [1] was “Dose-dependent effect”, the pIC50 (Sialidase [2]) was 7.10 and the pKi (Sialidase [3]) was 6.89. The pKi (Sialidase [4]) was 7.24.

In the case of `C=CC(C)(C)c1c(O)cc(O)c2c(=O)c3cc(O)c4c(c3oc12)C=CC(C)(C)O4`, the Activity [5] was “Dose-dependent effect” and the inhibition [5] was 30%.

`C=CC(C)(C)c1c2c(c(O)c3c(=O)c4ccc(O)c(O)c4oc13)C=CC(C)(C)O2` [MACLURAXANTHONE] was tested, and the Activity [1] was “Dose-dependent effect”, the pIC50 (Sialidase [2]) was 6.73 and the pKi (Sialidase [3]) was 6.32. The pKi (Sialidase [4]) was 6.99.

For `C=CC(C)(C)c1c(O)cc2oc3c(CC=C(C)C)c(O)c(O)cc3c(=O)c2c1O` [CUDRAXANTHONE L], the Activity [1] was “Dose-dependent effect”, the pIC50 (Sialidase [2]) was 6.64 and the pKi (Sialidase [3]) was 6.25. For the same molecule, the pKi (Sialidase [4]) was 6.86.

For `C=CC(C)(C)c1c(OC)cc(O)c2c(=O)c3c(CC=C(C)C)c(O)c(O)cc3oc12` [CUDRAXANTHONE D], the Activity [1] was “Dose-dependent effect”, the pIC50 (Sialidase [2]) was 6.56 and 5.90 and the pKi (Sialidase [3]) was 6.36 and 5.65. The pKi (Sialidase [4]) was 6.84 and 6.02.

In the case of `O=c1c(O)c(-c2ccc(O)c(O)c2)oc2cc(O)cc(O)c12` [QUERCETIN], the pIC50 (Sialidase [2]) was 5.57.
